Earlier results in US11696905B2, “Ready-to-use tranexamic acid intravenous solution” (Boulevard Patience et Beaujonc Nº3/1, priority 2018, dated 2023).

Key:
[1] = oral administration
[2] = four doses of 10-20 mg per kg body weight 36-48 hours before surgery

NC[C@H]1CC[C@H](C(=O)O)CC1 [Tranexamic acid, trans-4-(aminomethyl)cyclohexanecarboxylic acid]
absorption from the human gastrointestinal tract [1]: 40%
time antifibrinolytically active concentration remained in the serum [2]: 7 to 8 h
time antifibrinolytically active concentration remained in the tissues investigated [2]: up to 17 hours
antifibrinolytically active concentration (in vivo): 10 µg/mL
